Assays:
Details in all cases: 72 h
Caco-2 [1] = assay: cell viability relative to DMSO; higher = less toxic
Calu-3 [2] = assay: as above
HepG2 [3] = assay: as above
U2OS [4] = assay: as above
Vero E6 [5] = assay: as above
Calu-3 [6] = assay: relative viability EC50 (midpoint between 100% and the lowest measured viability); higher = less toxic
HepG2 [7] = assay: as above
U2OS [8] = assay: as above
Vero E6 [9] = assay: as above
Caco-2 [10] = assay: drug sensitivity score (DSS) for viability; higher = more toxic; extreme values may be limits of the assay
Calu-3 [11] = assay: as above
HepG2 [12] = assay: as above
U2OS [13] = assay: as above
Vero E6 [14] = assay: as above
Caco-2 [15] = assay: relative viability EC50 (midpoint between 100% and the lowest measured viability); higher = less toxic

Compound | cell viability (Caco-2 [1]; 1 nM) | cell viability (Caco-2 [1]; 10 nM) | cell viability (Caco-2 [1]; 100 nM) | cell viability (Caco-2 [1]; 1000 nM) | cell viability (Caco-2 [1]; 10000 nM) | cell viability (Calu-3 [2]; 1 nM) | cell viability (Calu-3 [2]; 10 nM) | cell viability (Calu-3 [2]; 100 nM) | cell viability (Calu-3 [2]; 1000 nM) | cell viability (Calu-3 [2]; 10000 nM) | cell viability (HepG2 [3]; 1 nM) | cell viability (HepG2 [3]; 10 nM) | cell viability (HepG2 [3]; 100 nM) | cell viability (HepG2 [3]; 1000 nM) | cell viability (HepG2 [3]; 10000 nM) | cell viability (U2OS [4]; 1 nM) | cell viability (U2OS [4]; 10 nM) | cell viability (U2OS [4]; 100 nM) | cell viability (U2OS [4]; 1000 nM) | cell viability (U2OS [4]; 10000 nM) | cell viability (Vero E6 [5]; 1 nM) | cell viability (Vero E6 [5]; 10 nM) | cell viability (Vero E6 [5]; 100 nM) | cell viability (Vero E6 [5]; 1000 nM) | cell viability (Vero E6 [5]; 10000 nM) | relative viability EC50 (Calu-3 [6]) | relative viability EC50 (HepG2 [7]) | relative viability EC50 (U2OS [8]) | relative viability EC50 (Vero E6 [9]) | drug sensitivity score (Caco-2 [10]) | drug sensitivity score (Calu-3 [11]) | drug sensitivity score (HepG2 [12]) | drug sensitivity score (U2OS [13]) | drug sensitivity score (Vero E6 [14]) | relative viability EC50 (Caco-2 [15])
COc1ccc(OC)c(CN(C(C)=O)c2cc(F)ccc2Oc2ccccc2)c1 [DAA-1106] | 93.4% | 112% | 93.1% | 108% | 71.4% | 103% | 102% | 93.7% | 98.5% | 98.1% | 102% | 105% | 99.2% | 95.7% | 96% | 102% | 107% | 100% | 96.5% | 93.6% | 102% | 99% | 103% | 107% | 101% | > 10 µM | > 10 µM | > 10000 nM | > 10000 nM | 0.9 | 0 | 0 | 0 | 0 | 
CSc1nc(N)cc(Oc2ccc(-c3nnc(Nc4cccc(C(F)(F)F)c4)[nH]3)cc2)n1 [KG-5] | 96.7% | 98.7% | 105% | 84.1% | 35.2% | 90.3% | 95.4% | 92.7% | 93.2% | 61.8% | 93.9% | 96% | 92.5% | 99.6% | 25.2% | 102% | 101% | 97.5% | 92.9% | 34.7% | 98.9% | 103% | 105% | 94.8% | 33.1% |  | 3.12 µM | 2260 nM | 2540 nM | 6 | 3 | 4.2 | 4.8 | 4.5 | 1570 nM
N#Cc1c(-c2ccccc2)cc(-c2cc(Br)ccc2O)[nH]c1=O [TCS-PIM-1-1] | 96.7% | 101% | 104% | 97.5% | 88.8% |  |  |  |  |  | 94.9% | 99.4% | 99.7% | 94.5% | 99.2% | 99% | 96.3% | 102% | 97.6% | 93.9% | 96.9% | 101% | 95.5% | 96% | 93.1% |  | > 10 µM | > 10000 nM | > 10000 nM | 0.1 |  | 0 | 0 | 0 | > 10000 nM
CC(=O)[C@]1(N)Cc2c(O)c3c(c(O)c2[C@@H](O[C@H]2C[C@H](O)[C@H](O)CO2)C1)C(=O)c1ccccc1C3=O [amrubicin] | 101% | 105% | 99.6% | 86.9% | 7.4% | 96% | 117% | 114% | 110% | 86.7% | 105% | 110% | 103% | 84.5% | -0.2% | 104% | 99% | 102% | 102% | 73.7% | 96% | 104% | 99.8% | 88.4% | 32.1% | > 10 µM | 1.96 µM |  | 1870 nM | 7.3 | 0 | 8.1 | 0.9 | 5.7 | 2040 nM
CO[C@@]1(NC(=O)CSCC#N)C(=O)N2C(C(=O)O)=C(CSc3nnnn3C)CS[C@@H]21 [cefmetazole] | 109% | 106% | 108% | 94.7% | 105% | 101% | 97.6% | 99.7% | 108% | 108% | 106% | 105% | 99.7% | 97.4% | 117% |  |  |  |  |  | 96.7% | 102% | 102% | 97.9% | 93.2% | > 10 µM | > 10 µM |  | > 10000 nM | 0 | 0 | 0 |  | 0 | > 10000 nM
CC1(COc2ccc3c(c2)ncn3-c2ccc3cccc(N4CCC(N)CC4)c3n2)COC1 [crenolanib] | 101% | 97.1% | 102% | 112% | 94.5% |  |  |  |  |  | 107% | 103% | 107% | 101% | 9.5% | 106% | 102% | 106% | 101% | 9.4% | 102% | 104% | 101% | 102% | 22.6% |  | 3.26 µM | 3260 nM | 3300 nM | 0 |  | 4.9 | 4.9 | 4.1 | > 10000 nM
c1cc(-c2cnn3cc(-c4ccc(OCCN5CCCCC5)cc4)cnc23)ccn1 [dorsomorphin] | 96.8% | 96.6% | 89.4% | 95.1% | 56.5% | 102% | 95.6% | 99.4% | 98.9% | 47.4% | 103% | 103% | 90.5% | 93.1% | 11.6% | 102% | 104% | 95.9% | 91.4% | 16.7% | 98.5% | 94.5% | 102% | 96.8% | 9.1% | 3.02 µM | 2.52 µM | 2310 nM | 2900 nM | 3 | 2.9 | 6 | 6 | 5.5 | 
COC(=O)/C=C/c1cc(O)ccc1O [erbstatin-analog] | 97.7% | 102% | 91.8% | 94.3% | 40.9% | 113% | 97.6% | 106% | 99.2% | 73.3% | 92% | 101% | 99.8% | 102% | 50% | 101% | 103% | 95.2% | 97.4% | 34.8% | 98.8% | 96.1% | 94.7% | 74.8% | 22.6% |  | 3.37 µM | 2860 nM | 1410 nM | 4.1 | 1.2 | 2.5 | 3.9 | 7.6 | 2370 nM

Source: the supplement of paper PMC13380429
